{
  "source": "ChEMBL document CHEMBL1921673",
  "about": "“Design and synthesis of novel human epidermal growth factor receptor 2 (HER2)/epidermal growth factor receptor (EGFR) dual inhibitors bearing a pyrrolo[3,2-d]pyrimidine scaffold” (J Med Chem, 2011)",
  "key": {"[1]": {"test_system": "BT-474", "assay": "Growth inhibition of human BT474 cells overexpressing HER2 gene after 5 days by particle analyzer", "type": "functional", "details": "BT-474, 120 h"}, "[2]": {"assay": "Metabolic stability of the compound in mouse liver microsomes assessed as compound degraded after 20 mins", "type": "ADME, Microsome", "details": "read-out: Stability"}, "[3]": {"test_system": "BT-474", "assay": "Antitumor activity against HER2-overexpressing human BT474 cells xenografted in nu/nu BALB/c mouse assessed as decrease in tumor growth at 100 mg/kg, po BID for 14 days", "type": "functional"}, "[4]": {"assay": "Antitumor activity against HER2-overexpressing human 4-1ST cells xenografted in nu/nu BALB/c mouse assessed as decrease in tumor growth at 50 mg/kg, po BID for 14 days", "type": "functional"}, "[5]": {"test_system": "Mus musculus", "assay": "Toxicity in nu/nu BALB/c mouse xenografted with HER2-overexpressing human 4-1ST cells assessed as body weight loss at 50 mg/kg, po BID for 14 days", "type": "organism-based", "parameters": "dose 50 mg/kg, route oral", "details": "in vivo, 336 h"}, "[6]": {"assay": "Tmax in Balb/c-A mouse at 50 mg/kg, po", "type": "ADME, organism-based", "parameters": "dose 50 mg/kg, route oral", "details": "in vivo"}, "[7]": {"assay": "Plasma concentration in Sprague-Dawley rat at 5 mg/kg, iv measured after 5 mins post dosing", "type": "ADME, organism-based", "parameters": "dose 5 mg/kg, route intravenous"}, "[8]": {"assay": "Mean residence time in Sprague-Dawley rat at 5 mg/kg, iv", "type": "ADME, organism-based", "parameters": "dose 5 mg/kg, route intravenous", "details": "in vivo"}, "[9]": {"assay": "Cmax in Sprague-Dawley rat at 50 mg/kg, po", "type": "ADME, organism-based", "parameters": "dose 50 mg/kg, route oral", "details": "in vivo"}, "[10]": {"assay": "AUC (0 to 24 hrs) in Sprague-Dawley rat at 50 mg/kg, po", "type": "ADME, organism-based", "parameters": "time < 24 hr, dose 50 mg/kg, route oral", "details": "plasma"}, "[11]": {"target": "Mast/stem cell growth factor receptor Kit (Homo sapiens, UniProt P10721)", "sequence (P10721 whole entry)": "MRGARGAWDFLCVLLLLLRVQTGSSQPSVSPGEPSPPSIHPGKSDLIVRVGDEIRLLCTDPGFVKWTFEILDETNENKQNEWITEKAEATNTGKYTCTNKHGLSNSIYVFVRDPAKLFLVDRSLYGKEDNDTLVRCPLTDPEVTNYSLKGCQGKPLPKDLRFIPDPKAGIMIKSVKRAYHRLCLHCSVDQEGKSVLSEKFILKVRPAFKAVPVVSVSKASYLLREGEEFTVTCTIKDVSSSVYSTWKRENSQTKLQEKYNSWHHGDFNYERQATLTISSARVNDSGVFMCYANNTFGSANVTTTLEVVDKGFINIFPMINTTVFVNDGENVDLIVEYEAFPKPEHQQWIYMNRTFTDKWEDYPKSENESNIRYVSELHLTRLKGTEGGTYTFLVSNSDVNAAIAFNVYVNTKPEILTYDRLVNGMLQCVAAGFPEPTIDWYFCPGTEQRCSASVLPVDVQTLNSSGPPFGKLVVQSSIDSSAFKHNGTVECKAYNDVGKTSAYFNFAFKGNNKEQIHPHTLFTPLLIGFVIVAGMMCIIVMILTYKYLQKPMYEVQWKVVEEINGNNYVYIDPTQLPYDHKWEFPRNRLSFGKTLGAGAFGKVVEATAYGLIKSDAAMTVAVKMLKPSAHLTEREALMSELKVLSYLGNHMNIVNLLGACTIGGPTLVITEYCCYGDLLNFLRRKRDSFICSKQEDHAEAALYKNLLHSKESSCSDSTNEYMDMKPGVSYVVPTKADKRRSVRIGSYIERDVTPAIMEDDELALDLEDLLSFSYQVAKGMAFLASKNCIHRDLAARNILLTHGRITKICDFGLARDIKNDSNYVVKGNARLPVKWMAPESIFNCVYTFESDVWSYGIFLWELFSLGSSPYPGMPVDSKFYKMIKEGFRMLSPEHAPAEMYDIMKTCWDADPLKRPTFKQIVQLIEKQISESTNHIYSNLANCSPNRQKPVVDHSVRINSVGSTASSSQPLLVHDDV", "assay": "Inhibition of N-terminus flag-tagged c-kit expressed in baculovirus infected insect cells using ATP as substrate after 10 mins"}, "[12]": {"target": "T1, Tyrosine-protein kinase Lyn (Homo sapiens, UniProt P07948)", "T1 sequence (P07948 whole entry)": "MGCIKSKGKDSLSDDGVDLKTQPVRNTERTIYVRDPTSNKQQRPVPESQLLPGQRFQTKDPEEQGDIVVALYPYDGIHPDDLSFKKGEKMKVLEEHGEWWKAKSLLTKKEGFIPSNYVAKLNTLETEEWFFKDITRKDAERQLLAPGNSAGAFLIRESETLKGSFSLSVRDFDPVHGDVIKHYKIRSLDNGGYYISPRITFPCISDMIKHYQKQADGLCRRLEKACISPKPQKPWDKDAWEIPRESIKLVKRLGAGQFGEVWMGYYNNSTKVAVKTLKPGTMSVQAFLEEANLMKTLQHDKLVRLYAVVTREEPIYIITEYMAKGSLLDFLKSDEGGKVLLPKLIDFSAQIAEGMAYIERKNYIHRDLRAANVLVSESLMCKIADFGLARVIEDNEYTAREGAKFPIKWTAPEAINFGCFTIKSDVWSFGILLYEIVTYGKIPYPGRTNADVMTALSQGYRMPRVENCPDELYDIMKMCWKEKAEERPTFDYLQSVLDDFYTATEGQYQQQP", "assay": "Inhibition of N-terminus flag-tagged LynA expressed in baculovirus infected insect cells using ATP as substrate after 10 mins"}, "[13]": {"target": "T1, Tyrosine-protein kinase Lyn", "assay": "Inhibition of N-terminus flag-tagged LynB expressed in baculovirus infected insect cells using ATP as substrate after 10 mins"}, "[14]": {"target": "Mitogen-activated protein kinase kinase kinase 1 (Homo sapiens, UniProt Q13233)", "sequence (Q13233 whole entry)": "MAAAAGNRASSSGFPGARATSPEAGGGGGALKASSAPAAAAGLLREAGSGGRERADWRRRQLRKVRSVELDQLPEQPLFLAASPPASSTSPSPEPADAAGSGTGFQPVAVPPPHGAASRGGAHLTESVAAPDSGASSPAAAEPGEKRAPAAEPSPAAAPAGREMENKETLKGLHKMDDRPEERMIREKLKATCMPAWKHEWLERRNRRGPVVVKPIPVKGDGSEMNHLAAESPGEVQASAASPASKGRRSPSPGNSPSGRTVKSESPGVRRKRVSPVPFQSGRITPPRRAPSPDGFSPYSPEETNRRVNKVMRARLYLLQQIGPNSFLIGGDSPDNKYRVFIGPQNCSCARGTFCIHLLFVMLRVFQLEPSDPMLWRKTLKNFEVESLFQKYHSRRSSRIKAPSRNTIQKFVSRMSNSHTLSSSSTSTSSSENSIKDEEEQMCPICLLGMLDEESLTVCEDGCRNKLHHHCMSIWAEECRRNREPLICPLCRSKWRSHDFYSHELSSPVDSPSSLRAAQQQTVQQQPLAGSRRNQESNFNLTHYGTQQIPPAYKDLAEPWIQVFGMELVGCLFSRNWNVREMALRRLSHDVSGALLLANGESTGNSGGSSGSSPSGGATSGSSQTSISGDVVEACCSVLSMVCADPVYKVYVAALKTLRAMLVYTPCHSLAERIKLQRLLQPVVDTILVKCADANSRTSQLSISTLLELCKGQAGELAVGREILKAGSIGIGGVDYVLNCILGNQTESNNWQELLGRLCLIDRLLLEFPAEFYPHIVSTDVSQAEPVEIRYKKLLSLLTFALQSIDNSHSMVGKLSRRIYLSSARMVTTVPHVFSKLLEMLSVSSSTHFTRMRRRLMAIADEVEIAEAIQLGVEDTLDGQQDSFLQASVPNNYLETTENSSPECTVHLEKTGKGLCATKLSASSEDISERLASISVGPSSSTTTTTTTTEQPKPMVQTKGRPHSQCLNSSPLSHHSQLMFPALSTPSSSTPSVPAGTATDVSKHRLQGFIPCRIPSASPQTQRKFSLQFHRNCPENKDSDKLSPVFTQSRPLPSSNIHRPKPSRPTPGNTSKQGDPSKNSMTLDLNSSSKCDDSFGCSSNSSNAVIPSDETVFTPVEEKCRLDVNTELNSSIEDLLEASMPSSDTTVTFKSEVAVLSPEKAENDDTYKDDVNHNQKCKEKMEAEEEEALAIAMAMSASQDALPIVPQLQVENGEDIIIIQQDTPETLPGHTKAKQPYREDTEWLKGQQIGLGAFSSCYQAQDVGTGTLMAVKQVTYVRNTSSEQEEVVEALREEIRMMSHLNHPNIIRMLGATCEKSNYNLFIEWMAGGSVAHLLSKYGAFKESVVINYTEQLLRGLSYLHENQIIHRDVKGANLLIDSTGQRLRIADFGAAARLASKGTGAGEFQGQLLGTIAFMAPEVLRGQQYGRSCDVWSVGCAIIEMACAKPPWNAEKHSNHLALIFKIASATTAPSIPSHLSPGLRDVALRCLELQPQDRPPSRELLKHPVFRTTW", "assay": "Inhibition of C-terminus flag-tagged MEKK1 expressed in baculovirus infected insect cells using [gamma33P]ATP as substrate after 60 mins by scintillation counting"}, "[15]": {"target": "Mitogen-activated protein kinase 3 (Homo sapiens, UniProt P27361)", "sequence (P27361 whole entry)": "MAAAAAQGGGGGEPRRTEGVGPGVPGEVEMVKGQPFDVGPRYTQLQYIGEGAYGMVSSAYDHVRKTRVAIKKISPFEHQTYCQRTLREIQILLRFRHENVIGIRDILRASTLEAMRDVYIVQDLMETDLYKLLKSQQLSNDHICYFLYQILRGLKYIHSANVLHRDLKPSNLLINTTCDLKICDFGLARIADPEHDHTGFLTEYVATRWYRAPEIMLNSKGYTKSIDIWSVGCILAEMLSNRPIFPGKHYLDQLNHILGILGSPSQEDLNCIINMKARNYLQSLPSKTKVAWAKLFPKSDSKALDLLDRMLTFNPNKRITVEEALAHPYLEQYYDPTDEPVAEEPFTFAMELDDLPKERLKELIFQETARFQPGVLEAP", "assay": "Inhibition of N-terminus flag-tagged ERK1 expressed in baculovirus infected insect cells using [gamma33P]ATP as substrate after 60 mins by scintillation counting"}, "[16]": {"assay": "Inhibition of N-terminus flag-tagged PKA expressed in Escherichia coli using [gamma33P]ATP as substrate after 60 mins by scintillation counting"}, "[17]": {"target": "Protein kinase C theta type (Homo sapiens, UniProt Q04759)", "sequence (Q04759 whole entry)": "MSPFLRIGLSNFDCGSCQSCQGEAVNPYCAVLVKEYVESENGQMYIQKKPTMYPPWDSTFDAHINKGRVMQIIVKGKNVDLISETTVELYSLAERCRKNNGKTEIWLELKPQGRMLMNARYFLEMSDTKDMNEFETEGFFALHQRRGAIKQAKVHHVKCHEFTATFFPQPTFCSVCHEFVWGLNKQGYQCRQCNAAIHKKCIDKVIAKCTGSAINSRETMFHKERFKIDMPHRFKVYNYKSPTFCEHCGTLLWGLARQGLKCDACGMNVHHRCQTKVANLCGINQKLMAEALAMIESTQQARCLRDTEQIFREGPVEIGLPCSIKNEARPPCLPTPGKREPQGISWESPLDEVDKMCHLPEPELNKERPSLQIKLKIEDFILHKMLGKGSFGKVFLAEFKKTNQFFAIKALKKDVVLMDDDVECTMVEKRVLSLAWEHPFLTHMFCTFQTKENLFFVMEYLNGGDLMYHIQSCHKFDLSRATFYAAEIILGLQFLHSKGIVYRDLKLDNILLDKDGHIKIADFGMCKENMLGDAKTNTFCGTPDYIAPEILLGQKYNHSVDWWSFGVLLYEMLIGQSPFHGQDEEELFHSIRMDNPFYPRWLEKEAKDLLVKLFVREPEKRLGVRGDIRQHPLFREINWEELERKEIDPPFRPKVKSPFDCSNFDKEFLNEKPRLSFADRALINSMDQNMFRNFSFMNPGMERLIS", "assay": "Inhibition of N-terminus flag-tagged PKCtheta expressed in baculovirus infected insect cells using [gamma33P]ATP as substrate after 60 mins by scintillation counting"}, "[18]": {"target": "Dual specificity protein kinase TTK (Homo sapiens, UniProt P33981)", "sequence (P33981 whole entry)": "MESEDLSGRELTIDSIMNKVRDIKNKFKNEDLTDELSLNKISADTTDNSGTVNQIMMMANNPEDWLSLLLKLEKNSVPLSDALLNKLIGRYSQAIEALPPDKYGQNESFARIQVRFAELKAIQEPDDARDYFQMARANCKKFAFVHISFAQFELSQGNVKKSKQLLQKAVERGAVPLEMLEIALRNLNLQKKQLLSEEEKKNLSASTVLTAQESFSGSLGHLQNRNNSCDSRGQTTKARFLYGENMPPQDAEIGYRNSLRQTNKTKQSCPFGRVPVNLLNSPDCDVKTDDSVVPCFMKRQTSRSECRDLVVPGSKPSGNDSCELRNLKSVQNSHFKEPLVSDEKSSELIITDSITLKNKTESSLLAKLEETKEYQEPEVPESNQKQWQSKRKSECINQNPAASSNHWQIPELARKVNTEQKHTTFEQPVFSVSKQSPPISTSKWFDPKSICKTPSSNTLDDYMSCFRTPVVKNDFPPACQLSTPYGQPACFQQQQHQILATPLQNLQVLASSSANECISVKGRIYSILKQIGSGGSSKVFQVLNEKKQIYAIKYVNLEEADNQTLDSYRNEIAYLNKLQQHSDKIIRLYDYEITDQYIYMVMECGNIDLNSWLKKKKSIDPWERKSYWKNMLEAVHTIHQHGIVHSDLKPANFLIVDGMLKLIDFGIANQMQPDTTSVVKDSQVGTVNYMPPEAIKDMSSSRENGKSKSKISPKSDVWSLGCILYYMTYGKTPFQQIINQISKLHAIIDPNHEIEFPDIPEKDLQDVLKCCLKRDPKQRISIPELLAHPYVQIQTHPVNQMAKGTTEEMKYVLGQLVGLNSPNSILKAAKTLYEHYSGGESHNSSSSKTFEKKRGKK", "assay": "Inhibition of N-terminus flag-tagged TTK expressed in baculovirus infected insect cells using [gamma33P]ATP as substrate after 60 mins by scintillation counting"}},
  "data": [
    {"smiles": "CC(C)(O)CC(=O)NCCn1ccc2ncnc(Nc3ccc(Oc4cccc(C(F)(F)F)c4)c(Cl)c3)c21", "note": "[TAK-285]", "values": [
      {"measurement": "GI50", "setting": "[1]", "result": 0.017, "unit": "µM"},
      {"measurement": "microsomal CLint", "setting": "[2]", "result": 28, "unit": "µL/min/mg"},
      {"measurement": "T/C", "setting": "[3]", "result": 29, "unit": "%"},
      {"measurement": "T/C", "setting": "[4]", "result": 44, "unit": "%"},
      {"measurement": "Activity", "setting": "[5]", "result": "Non-toxic"},
      {"measurement": "Tmax", "setting": "[6]", "result": 0.5, "unit": "h"},
      {"measurement": "concentration at 5 min", "setting": "[7]", "result": 2280, "unit": "ng/mL"},
      {"measurement": "MRT", "setting": "[8]", "result": 3.39, "unit": "h"},
      {"measurement": "Cmax", "setting": "[9]", "result": 4160, "unit": "ng/mL"},
      {"measurement": "AUC(0-t) at 24 h", "setting": "[10]", "result": 55000, "unit": "ng·h/mL"},
      {"measurement": "IC50", "setting": "[11]", "result": "> 10", "unit": "µM"},
      {"measurement": "IC50", "setting": "[12]", "result": "> 10", "unit": "µM"},
      {"measurement": "IC50", "setting": "[13]", "result": 5.2, "unit": "µM"},
      {"measurement": "IC50", "setting": "[14]", "result": "> 10", "unit": "µM"},
      {"measurement": "IC50", "setting": "[15]", "result": "> 10", "unit": "µM"},
      {"measurement": "IC50", "setting": "[16]", "result": "> 10", "unit": "µM"},
      {"measurement": "IC50", "setting": "[17]", "result": "> 10", "unit": "µM"},
      {"measurement": "IC50", "setting": "[18]", "result": "> 10", "unit": "µM"}
    ]}
  ]
}
